# Laboratory results reported in PMC12282101, “Heat shock protein 90 chaperone activity is required for hepatitis A virus replication” (Journal of Virology, 2025).
# Where a name gives a salt, the structure may show the parent alone.
# Legend:
# 18f-NLuc reporter virus = assay: microbe, parasite or virus in culture; type: cell-based, Hepatitis A virus; conditions: for activity at 10 µM: Hepatovirus A, Huh-7.5.1, 72 h, read-out: Normalized HAV production
# Huh-7.5.1 cells = assay: Cell viability in the chemical screen (Cell TiterGlo); conditions: 10 µM compound, 72 h
Compound,activity at 10 µM (18f-NLuc reporter virus),Viability Percent DMSO (Huh-7.5.1 cells),Normalized HAV production (18f-NLuc reporter virus)
Nc1nc(NC2CC2)c2ncn([C@H]3C=C[C@@H](CO)C3)c2n1 [Abacavir],87%,119 Percent DMSO,
C=C(C)[C@@H]1CC[C@]2(C(=O)O)CC[C@]3(C)[C@H](CC[C@@H]4[C@@]5(C)CC[C@H](O)C(C)(C)[C@@H]5CC[C@]43C)[C@@H]12 [Betulinic acid],75%,116 Percent DMSO,
CCC[C@H](NC(=O)[C@@H]1[C@H]2CCC[C@H]2CN1C(=O)[C@@H](NC(=O)[C@@H](NC(=O)c1cnccn1)C1CCCCC1)C(C)(C)C)C(=O)C(=O)NC1CC1 [Telaprevir],73%,119 Percent DMSO,
Darunavir Ethanolate,,111 Percent DMSO,1.54
CC(C)(C)C(=O)OCOP(=O)(COCCn1cnc2c(N)ncnc21)OCOC(=O)C(C)(C)C [Adefovir dipivoxil],138%,74 Percent DMSO,
OC[C@H]1O[C@@H](O[C@@H]2OC=C[C@H]3[C@H](O)[C@@H]4O[C@]4(CO)[C@@H]23)[C@H](O)[C@@H](O)[C@@H]1O [Catalpol],98%,128 Percent DMSO,
O=C(O)P(=O)(O)O [Foscarnet sodium],109%,94 Percent DMSO,
Cc1cn([C@H]2C=C[C@@H](CO)O2)c(=O)[nH]c1=O [Stavudine],101%,101 Percent DMSO,
COc1c(-c2ccc3cc(NS(C)(=O)=O)ccc3c2)cc(-n2ccc(=O)[nH]c2=O)cc1C(C)(C)C [Dasabuvir],14%,116 Percent DMSO,
CC(C)[C@H](N)C(=O)OCC(CO)OCn1cnc2c(=O)nc(N)[nH]c21 (stereo partly drawn) [Valganciclovir hydrochloride],90%,110 Percent DMSO,
Cc1cc(F)c(C(=O)Nc2cccc(-c3nncn3C(C)C)n2)cc1-n1cnc(C2CC2)c1 [Selonsertib],38%,131 Percent DMSO,
O=C(O[C@@H]1Cc2c(O)cc(O)cc2O[C@@H]1c1cc(O)c(O)c(O)c1)c1cc(O)c(O)c(O)c1 [(-)-Epigallocatechin Gallate],105%,125 Percent DMSO,
CC[n+]1c(-c2ccccc2)c2cc(N)ccc2c2ccc(N)cc21 [Ethidium bromide],4.56%,85 Percent DMSO,
CCn1cc(C(=O)O)c(=O)c2cc(F)c(N3CCNCC3)nc21 [Enoxacin],89%,159 Percent DMSO,
Cc1cccc(C)c1OCC(=O)N[C@@H](Cc1ccccc1)[C@@H](O)C[C@H](Cc1ccccc1)NC(=O)[C@H](C(C)C)N1CCCNC1=O [Lopinavir],43%,126 Percent DMSO,
CO/N=C(\C(=O)N[C@@H]1C(=O)N2C(C(=O)O)=C(C[N+]3(C)CCCC3)CS[C@H]12)c1csc(N)n1 [Cefepime Dihydrochloride Monohydrate],73%,116 Percent DMSO,
COC(=O)c1cc(OC)c2c(c1-c1c(CO)cc(OC)c3c1OCO3)OCO2 [Bicyclol],105%,115 Percent DMSO,
O=C(/C=C\n1cnc(-c2cc(C(F)(F)F)cc(C(F)(F)F)c2)n1)NNc1ccccn1 [Verdinexor],22%,174 Percent DMSO,
O=c1[nH]c(=O)n([C@H]2C[C@H](O)[C@@H](CO)O2)cc1F [Floxuridine],42%,86 Percent DMSO,
Cc1cn([C@H]2C[C@H](N=[N+]=[N-])[C@@H](CO)O2)c(=O)[nH]c1=O [Zidovudine],131%,92 Percent DMSO,
O=C(O)[C@H]1O[C@@H](Oc2cc3oc(-c4ccccc4)cc(=O)c3c(O)c2O)[C@H](O)[C@@H](O)[C@@H]1O [Baicalin],81%,114 Percent DMSO,
COc1cc2ncnc(Nc3cccc(Cl)c3)c2cc1OC [AG-1478],,164 Percent DMSO,0.51
Cc1c(O)cccc1C(=O)N[C@@H](CSc1ccccc1)[C@H](O)CN1C[C@H]2CCCC[C@H]2C[C@H]1C(=O)NC(C)(C)C [Nelfinavir Mesylate],69%,88 Percent DMSO,
Nc1ccn([C@@H]2CS[C@H](CO)O2)c(=O)n1 [Lamivudine],86%,120 Percent DMSO,
CCOCc1nc2c(N)nc3ccccc3c2n1CC(C)(C)O [Resiquimod],130%,107 Percent DMSO,
CC(C)c1cc(Oc2c(Cl)cc(-n3nc(C#N)c(=O)[nH]c3=O)cc2Cl)n[nH]c1=O [MGL3196],136%,118 Percent DMSO,

Compound,activity at 10 µM (18f-NLuc reporter virus),Viability Percent DMSO (Huh-7.5.1 cells),Normalized HAV production (18f-NLuc reporter virus)
CC1(C)CC[C@]2(C(=O)O)CC[C@]3(C)C(=CC[C@@H]4[C@@]5(C)CC[C@H](O)C(C)(C)[C@@H]5CC[C@]43C)[C@@H]2C1 [Oleanolic Acid],82%,118 Percent DMSO,
O=c1[nH]c(=O)n([C@H]2C[C@H](O)[C@@H](CO)O2)cc1I [Dendrid],102%,103 Percent DMSO,
O=C(Nc1ncc([N+](=O)[O-])s1)c1ccccc1O [Tizoxanide],113%,72 Percent DMSO,
CO[C@H]1/C=C/O[C@@]2(C)Oc3c(C)c(O)c4c(O)c(c(/C=N/N5CCN(C)CC5)c(O)c4c3C2=O)NC(=O)/C(C)=C\C=C\[C@H](C)[C@H](O)[C@@H](C)[C@@H](O)[C@@H](C)[C@H](OC(C)=O)[C@@H]1C [Rifampicin],86%,119 Percent DMSO,
Cc1cc(C#N)cc(C)c1Oc1nc(Nc2ccc(C#N)cc2)nc(N)c1Br [Etravirine],113%,112 Percent DMSO,
Cc1nc(N(C)C(=O)Cc2ccc(-c3ccccn3)cc2)sc1S(N)(=O)=O [Pritelivir],78%,127 Percent DMSO,
C=C(C)[C@@H]1CC[C@]2(CO)CC[C@]3(C)[C@H](CC[C@@H]4[C@@]5(C)CC[C@H](O)C(C)(C)[C@@H]5CC[C@]43C)[C@@H]12 [Betulin],119%,123 Percent DMSO,
C[C@@H]1O[C@@H](O[C@H]2[C@H](Oc3cc(O)c4c(c3)O[C@H](c3ccc(O)cc3)CC4=O)O[C@H](CO)[C@@H](O)[C@@H]2O)[C@H](O)[C@H](O)[C@H]1O [Naringin],124%,115 Percent DMSO,
CC(C)c1nc(CN(C)C(=O)N[C@@H](CCN2CCOCC2)C(=O)N[C@H](CC[C@H](Cc2ccccc2)NC(=O)OCc2cncs2)Cc2ccccc2)cs1 [Cobicistat],34%,176 Percent DMSO,
COC[C@H]1C[C@@H](c2ncc(-c3ccc4c(c3)COc3cc5c(ccc6nc([C@@H]7CC[C@H](C)N7C(=O)[C@@H](NC(=O)OC)C(C)C)[nH]c65)cc3-4)[nH]2)N(C(=O)[C@H](NC(=O)OC)c2ccccc2)C1 [Velpatasvir],52%,121 Percent DMSO,
Clc1ccc(Cn2c(CN3CCCC3)nc3ccccc32)cc1 [Clemizole],58%,166 Percent DMSO,
CC(C)CN(C[C@@H](O)[C@H](Cc1ccccc1)NC(=O)O[C@H]1CCOC1)S(=O)(=O)c1ccc(N)cc1 [Amprenavir],91%,121 Percent DMSO,
Nc1nc2c(ncn2COCCO)c(=O)[nH]1 [Aciclovir],99%,110 Percent DMSO,
Oc1ccc(Cl)c2cccnc12 [Dermofongin],,101 Percent DMSO,0.98
O=C1CCC[C@@H]2[C@H]3CCC[N+]4([O-])CCC[C@@H](CN12)[C@@H]34 (stereo partly drawn) [Oxymatrine],100%,92 Percent DMSO,
CC(C)[C@H](N)C(=O)OCCOCn1cnc2c(=O)[nH]c(N)nc21 [Valacyclovir hydrochloride],87%,117 Percent DMSO,
Cc1cc(C)c(Nc2ccnc(Nc3ccc(C#N)cc3)n2)c(C)c1 [Dapivirine],14%,114 Percent DMSO,
CCOC(=O)c1ccc(OCCC2CCN(c3ccc(C)nn3)CC2)cc1 [Pirodavir],91%,134 Percent DMSO,
OC[C@H]1O[C@@H]2O[C@H]3[C@H](O)[C@@H](O)[C@@H](O[C@H]4[C@H](O)[C@@H](O)[C@@H](O[C@H]5[C@H](O)[C@@H](O)[C@@H](O[C@H]6[C@H](O)[C@@H](O)[C@@H](O[C@H]7[C@H](O)[C@@H](O)[C@@H](O[C@H]8[C@H](O)[C@@H](O)[C@@H](O[C@H]1[C@H](O)[C@H]2O)O[C@@H]8CO)O[C@@H]7CO)O[C@@H]6CO)O[C@@H]5CO)O[C@@H]4CO)O[C@@H]3CO [Beta-Cyclodextrin],72%,117 Percent DMSO,
CN[C@@H]1[C@H](O)[C@H](NC)[C@H]2O[C@@]3(O)C(=O)C[C@@H](C)O[C@H]3O[C@@H]2[C@H]1O.Cl.Cl [Spectinomycin dihydrochloride],,109 Percent DMSO,0.83
COc1cc2c(cc1Cc1cccc(Cl)c1F)c(=O)c(C(=O)O)cn2[C@H](CO)C(C)C [Elvitegravir],95%,118 Percent DMSO,
CN(C)CC[C@@H](c1ccc(Cl)cc1)c1ccccn1 [Dexchlorpheniramine Maleate],74%,118 Percent DMSO,
COc1cc(O)c(CC=C(C)C)c(O)c1C(=O)/C=C/c1ccc(O)cc1 [Xanthohumol],92%,102 Percent DMSO,
Cc1cc(/C=C/C#N)cc(C)c1Nc1ccnc(Nc2ccc(C#N)cc2)n1 [Rilpivirine],71%,132 Percent DMSO,
COc1cc(NC(=O)Nc2cccc(CNC(=O)O[C@H]3CCOC3)c2)ccc1-c1cnco1 [Merimepodib],34%,159 Percent DMSO,
